Experimental data: article PMC11195995, “A homogeneous time-resolved fluorescence screen to identify SIRT2 deacetylase and defatty-acylase inhibitors” (PLOS ONE, 2024)
“Also recorded” adds a separate entry of the source. Like-named read-outs stand apart in the source and are kept apart here. Primed or numbered codes have the meaning given here. Ends that are not written are not given here. * marks the point of attachment. Myristoyl = CCCCCCCCCCCCCC(=O)*; PEG4′ = PEG4 linker; FAM = fluorescein

Tests used:
SIRT2 [1] = biological target: T1, SIRT2 (Homo sapiens, UniProt Q8IXJ6); settings: read-out: IC50 for SIRT2 demyristoylase activity; cited from earlier work
T1 sequence (Q8IXJ6 34-356): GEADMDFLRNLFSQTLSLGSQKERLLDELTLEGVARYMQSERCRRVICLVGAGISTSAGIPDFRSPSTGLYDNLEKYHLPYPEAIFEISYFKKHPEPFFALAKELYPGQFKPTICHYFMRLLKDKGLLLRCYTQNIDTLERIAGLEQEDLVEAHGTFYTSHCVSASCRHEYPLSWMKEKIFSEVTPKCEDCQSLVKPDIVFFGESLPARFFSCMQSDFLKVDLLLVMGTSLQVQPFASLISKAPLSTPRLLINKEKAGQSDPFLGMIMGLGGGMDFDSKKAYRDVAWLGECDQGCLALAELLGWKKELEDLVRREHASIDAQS

SIRT2 [2] = biological target: T1, SIRT2; settings: read-out: Kd for SIRT2 alone; cited from earlier work
[3] = biological target: SIRT2—decanoyl peptide complex; design: method as in PMID 32941003; settings: cited from earlier work
SIRT2 [4] = biological target: T1, SIRT2; test: SIRT2 deacetylase activity assay (MALDI-MS, acetyl-H4K16 peptide); type: biochemical; settings: for Deacetylase IC50: 4 μM acetyl-H4K16, 1 mM NAD+, 37°C, absolute IC50, "no effect" = 200 μM compound did not significantly affect SIRT2 activity
Experimental: (§1) The enzymatic activity of SIRT2 was measured using a MALDI-MS—based protocol reported previously. Reactions were performed at 37°C for 2.5 min in PBS containing 1 mM DTT and 1 mM of NAD^+. Acylated H4K16 peptides were used as the substrates at the following concentrations: acetyl-H4K16, 4 μM; decanoyl-H4K16, 0.2 μM; dodecanoyl-H4K16, 0.5 μM; myristoyl-H4K16, 0.5 μM. These concentrations correspond to the enzyme’s Km for each substrate under saturating NAD^+ conditions. The enzyme concentration in each reaction was chosen such that 20% or less of the substrate was processed by the enzyme when the reactions were quenched. In dose-response assays showing a reduction in SIRT2 activity by increasing amounts of ligand, the data was fit with standard sigmoidal dose-response curves as we previously described. We report absolute IC50 values from the curves which reflect ligand concentrations that reduce the activity of the enzyme by 50% compared to control (no ligand) samples. Assays measuring the effects of ligand on SIRT1 deacetylase and SIRT6 demyristoylase activities were performed similarly, as previously described.

SIRT2 [5] = biological target: T1, SIRT2; test: SIRT2 demyristoylase activity assay (MALDI-MS, myristoyl-H4K16 peptide); type: biochemical; settings: for Demyristoylase IC50: 0.5 μM myristoyl-H4K16, 1 mM NAD+, 37°C, absolute IC50, "no effect" = 200 μM compound did not significantly affect SIRT2 activity
Experimental: as §1

SIRT2 [6] = biological target: T1, SIRT2; test: 1-aminoanthracene binding competition assay, SIRT2 alone
Experimental: Competition assays where 1-aminoanthracene was displaced from SIRT2 by 2, 4, 5, and 6 were performed as previously reported where we described its displacement from SIRT2 by 3. The assays were also cuvette-based and performed at 23°C in PBS with 1 mM DTT, and the final DMSO concentration was 0.6%. Briefly, the fluorescence intensity of 100 nM 1-aminoanthracene was measured in the presence of 4 μM SIRT2 and increasing amounts of ligand using excitation/emission wavelengths of 390 nm/520 nm. As previously described, displacement of 1-aminoanthracene from SIRT2 by a competitor results in a reduction of its fluorescence.
We determined and report absolute IC50 values from the curves which reflect ligand concentrations that reduce the fluorescence by 50% compared to control (no ligand) samples.

SIRT2 [7] = biological target: T1, SIRT2; test: SIRT2 binding competition assay using Cy3-myristoyl-H4K16 peptide; settings: concentrations as high as 100 μM
Experimental: Competition assays where Cy3-myristoyl-H4K16 peptide was displaced from SIRT2 by 1 were performed as previously described. Assays were performed in PBS with 1 mM DTT at 23°C in a quartz microcuvette (160 μl assay volume). Briefly, the fluorescence intensity of 50 nM Cy3-myristoyl-H4K16 peptide was measured in the presence of 2.5 μM SIRT2 and increasing amounts of 1 using excitation/emission wavelengths of 535 nm/560 nm. The final DMSO concentration in each measurement was 0.6%. As previously described, displacement of Cy3-myristoyl-H4K16 peptide from SIRT2 by a competitive ligand results in a reduction of its fluorescence.
The data from both competition assays show a reduction in probe fluorescence at increasing concentrations of competitor ligands. […] We determined and report absolute IC50 values from the curves which reflect ligand concentrations that reduce the fluorescence by 50% compared to control (no ligand) samples.

[8] = test system: acetylated alpha-tubulin in A549 cells; test: Immunofluorescence staining of acetylated alpha-tubulin in A549 cells; type: cell-based, human; settings: 25 μM, 6 hours
Experimental: 100,000 A549 or A549 SIRT2-KO cells were seeded on a coverslip that was placed in the well of 6-well plate, and the cells were grown overnight in full DMEM. […] The cells were then washed three times with PBS, fixed with 4% paraformaldehyde for 10 min, then washed again three times with PBS. Cells were incubated with 0.2% Triton X-100 for 15 minutes on a shaker followed by three more PBS washes. The cells were then blocked with 2% BSA in PBS for 1 hour at room temperature. […] Slides were imaged using a Keyence BZ-X710 fluorescence microscope with the following filter settings: DAPI, excitation/emission was 300–400 nm/438-484 nm; Alexa Fluor 488, excitation/emission was 448 nm/500-550 nm. All images were obtained under identical conditions, and fluorescence intensities were quantified using Fiji/ImageJ without any manipulation to the images. The fluorescence intensity from at least six cells per coverslip were randomly selected and measured targeting the cytosol (for measuring acetylated alpha-tubulin levels via Alexa Fluor 488) or the nucleus (for measuring nuclear DNA staining via DAPI). Relative fluorescence intensity was calculated as the ratio of Alexa Fluor 488/DAPI intensities. […]

[9] = test system: acetylated alpha-tubulin in A549 SIRT2-KO cells; test: Immunofluorescence staining of acetylated alpha-tubulin in A549 SIRT2-KO cells; type: cell-based, human; settings: 25 μM, 6 hours
A549 cells = test: Cell viability MTT assay; type: cell-based, human; settings: 72 hours treatment, concentrations shown in Fig 4F and 4G
Experimental: 5,000 A549 cells were seeded in a 96-well plate in full DMEM. The total volume in each well was 150 μl, and the DMSO concentration was 0.7%. After this treatment period, 10 μl of MTT reagent was added to each well, then the cells were cultured for 4 hour before adding 100 μl of crystal dissolving solution for another 16 hour incubation (Cayman Chemical, catalog #10009365). The absorbance in each well was measured at 570 nm and was used to determine the cell viability by comparing the absorbance of drug treated cells to control (DMSO treated) cells.

[10] = biological target: T2, 6xHis-SUMO-SIRT2 (human SIRT2 catalytic domain, amino acids 34-356, with N-terminal 6xHis-SUMO tag) (human, UniProt Q8IXJ6 34-356); test: AlphaScreen or HTRF; direct binding; 6xHis-SUMO-SIRT2 and FAM-myristoyl-H4K16 peptide 0-10 nM each, 0.2 nM anti-6xHis terbium cryptate-labeled antibody as FRET donor; 384-well plates, room temperature, 10 mM Hepes-NaOH pH 7.4, 150 mM NaCl, 5 mM DTT, 0.005% Tween-20; apparent Kd; settings: both partners purified
T2 construct: human SIRT2 catalytic domain, amino acids 34-356; Used in the HTRF assays; held near the FRET donor by a terbium cryptate-labeled anti-6xHis antibody (a tool); also called His tagged-SIRT2; sirtuin-2; not shown: His6, N-terminal, kept; SUMO, N-terminal, kept
T2 sequence (looked up): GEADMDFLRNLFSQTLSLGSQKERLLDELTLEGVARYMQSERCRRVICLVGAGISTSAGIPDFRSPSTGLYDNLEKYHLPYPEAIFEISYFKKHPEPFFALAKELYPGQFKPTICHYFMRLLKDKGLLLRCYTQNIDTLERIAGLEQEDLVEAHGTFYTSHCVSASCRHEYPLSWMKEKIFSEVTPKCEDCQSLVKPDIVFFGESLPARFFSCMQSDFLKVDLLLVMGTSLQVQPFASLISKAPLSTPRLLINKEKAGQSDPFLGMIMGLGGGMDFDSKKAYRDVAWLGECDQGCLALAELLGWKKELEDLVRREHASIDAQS

[11] = biological target: T3, SIRT2 catalytic domain (human, amino acids 34-356), 6xHis-SUMO tag removed (human, UniProt Q8IXJ6 34-356); test: ITC; PBS, 25°C; 20 uM SIRT2 in the cell, 200 uM peptide in the syringe; one site binding model; settings: both partners purified
T3 construct: human SIRT2 catalytic domain, amino acids 34-356; also called sirtuin-2; source: tag removed, chromatographically purified; not shown: His6, N-terminal, cleaved; SUMO, N-terminal, cleaved
T3 sequence (looked up): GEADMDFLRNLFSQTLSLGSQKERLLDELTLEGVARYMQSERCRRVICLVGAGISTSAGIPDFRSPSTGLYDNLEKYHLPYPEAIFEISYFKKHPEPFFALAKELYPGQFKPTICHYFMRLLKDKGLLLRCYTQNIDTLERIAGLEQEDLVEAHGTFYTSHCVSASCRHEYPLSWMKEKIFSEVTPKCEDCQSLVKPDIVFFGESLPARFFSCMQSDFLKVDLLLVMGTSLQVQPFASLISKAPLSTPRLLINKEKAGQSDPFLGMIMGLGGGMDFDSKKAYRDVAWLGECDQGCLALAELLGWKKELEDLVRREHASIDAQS

[12] = biological target: T2, 6xHis-SUMO-SIRT2 (human SIRT2 catalytic …); test: AlphaScreen or HTRF; competition; 3 nM SIRT2, 0.2 nM terbium cryptate-labeled antibody, 3 nM FAM-myristoyl-H4K16 peptide, 10 ul/well; unlabeled myristoyl-H4K16 peptide as competitor; settings: both partners purified

## Nc1cccc2cc3ccccc3cc12 [1-aminoanthracene]
SIRT2 [1]
  IC50: 21 µM
SIRT2 [2]
  Kd: 37 µM
[3]
  Kd: 4 µM

## CCCCOc1cc(F)c(O)c(F)c1 [compound 13, 4-butoxy-2,6-difluorophenol]
SIRT2 [4]
  Deacetylase IC50: no effect
SIRT2 [5]
  Demyristoylase IC50: no effect

## Oc1ccc(Br)cc1C(F)(F)F [compound 11, 4-bromo-2-(trifluoromethyl)phenol]
SIRT2 [4]
  Deacetylase IC50: no effect
SIRT2 [5]
  Demyristoylase IC50: no effect

## Oc1cc(C(F)(F)F)ccc1F [compound 14, 2-fluoro-5-(trifluoromethyl)phenol]
SIRT2 [4]
  Deacetylase IC50: no effect
SIRT2 [5]
  Demyristoylase IC50: no effect

## FC(F)(F)C1(c2ccccc2)N=N1 [compound 8, 3-phenyl-3-(trifluoromethyl)-3H-diazirine]
SIRT2 [4]
  IC50: 114 µM
SIRT2 [5]
  Demyristoylase IC50: no effect

## Oc1c(F)cc(Br)cc1F [compound 12, 4-bromo-2,6-difluorophenol]
SIRT2 [4]
  Deacetylase IC50: no effect
SIRT2 [5]
  Demyristoylase IC50: no effect

## CCCCCc1ccc(C)cc1O [compound 6, 5-methyl-2-pentylphenol]
SIRT2 [6]; SIRT2 only, 100 nM 1-aminoanthracene, 4 μM SIRT2
  IC50: 81 µM
SIRT2 [6]; read-out: SIRT2 Kd
  Kd: 73 µM

## Oc1c(F)cc(Br)cc1I [compound 9, 4-bromo-2-fluoro-6-iodophenol]
SIRT2 [4]
  Deacetylase IC50: no effect
SIRT2 [5]
  Demyristoylase IC50: no effect

## O=C1CSc2nc3ccccc3n21 [compound 15, [1, 3]thiazolo[3,2-a]benzimidazole-3(2H)-one]
SIRT2 [4]
  Deacetylase IC50: not effective; also recorded: no effect
SIRT2 [5]
  IC50: 117 µM
SIRT2 [6]; concentrations as high as 100 μM
  displacement of 1-aminoanthracene from SIRT2: did not efficiently displace
SIRT2 [7]
  displacement of Cy3-myristoyl-H4K16 peptide from SIRT2 / interaction with SIRT2: too weak to measure a Kd; also recorded: did not efficiently displace

## Cc1ccc(C(C)C)c(O)c1 [compound 4, 2-isopropyl-5-methylphenol]
SIRT2 [6]
  IC50: 128 µM
  Kd: 116 µM

## Oc1c(I)cc(Br)cc1I [compound 10, 4-bromo-2,6-diiodophenol]
SIRT2 [4]
  Deacetylase IC50: no effect
SIRT2 [5]
  Demyristoylase IC50: no effect

## Cc1ccc(C(=O)Nc2ccc(S(=O)(=O)O)c3cc(S(=O)(=O)O)cc(S(=O)(=O)O)c23)cc1NC(=O)c1cccc(NC(=O)Nc2cccc(C(=O)Nc3cc(C(=O)Nc4ccc(S(=O)(=O)O)c5cc(S(=O)(=O)O)cc(S(=O)(=O)O)c45)ccc3C)c2)c1 [suramin]
SIRT2 [1]
  IC50: 95 µM

## Cc1cc(C)nc(SCC(=O)Nc2ncc(Cc3cccc4ccccc34)s2)n1 [SirReal2, reference compound]
[8]
  level of acetylated alpha-tubulin (immunofluorescence): increased acetylated alpha-tubulin to similar levels as 1; also recorded: enhanced fluorescence
[9]
  level of acetylated alpha-tubulin (immunofluorescence): no effect
A549 cells
  viability / toxicity in A549 cells (MTT): did not cause toxicity; also recorded: no effect

## {FAM-PEG4′}-KGLGKGGAK(Myristoyl)RHRK
[10]
  Kd: ~0.001 µM

## KGLGKGGAK(Myristoyl)RHRK
[11]
  Kd: 0.013 µM
[12]
  IC50: 0.002 µM
